This is an account of results in US20050069887A1, “Dna synthesis promoters dna polymerase-associated factors and utilization thereof” (priority 2001, published 2005).

One assay has as its target T1, Taq DNA polymerase (Thermus aquaticus, UniProt P19821).
T1 construct: purchased TOYOBO CO., LTD
Description: PCR using Taq DNA polymerase with added oxalate ion (Example 1-4). Particulars: for PCR amplification of 4.5-kb DNA of myelin oligodendrocyte glycoprotein: FIG. 5; for PCR amplification of 3.6-kb DNA of β-globin: FIG. 4. It is filed as biochemical. The protocol:
The effect produced by the addition of oxalate ions was investigated in PCR using Taq DNA polymerase. A PCR buffer (10 mM Tris-HCl (pH 8.3), 50 mM KCl, 1.5 mM MgCl2) attached to Taq (TOYOBO CO., LTD.), 0.2 mM dNTPs and 0.3 μM of a primer pair were used. A pair of primers of SEQ ID Nos:10 and 11 was used for the PCR amplification of a 3.6-kb DNA of β-globin cluster (the electrophoresis pattern of its PCR product is shown in FIG. 4), while a pair of primers of SEQ ID Nos:12 and 13 was used for the PCR amplification of a 4.5-kb DNA of myelin oligodendrocyte glycoprotein (the electrophoresis pattern of its PCR product is shown in FIG. 5). The influence of varying the concentration of oxalate ions added on the PCR results was investigated using 2.5 U Taq DNA polymerase and 20 ng of Genomic DNA derived from cultured human cell K562 as a template. The PCR conditions were as follows: 94° C. for 2 minutes as 1 preliminary reaction, and then 30 cycles of 94° C. for 15 seconds, 60° C. for 30 seconds and 68° C. for 8 minutes. The PCR amplification was performed by using GeneAmp 2400 (PE Applied Biosystems).

The target of a further assay is T2, KOD-plus DNA polymerase (Thermococcus kodakarensis, UniProt P77933, DEL407-766/DEL853-1389).
T2 construct: purchased Toyobo
It is filed as biochemical, Thermococcus kodakaraensis KOD1. The protocol: The effect produced by the addition of oxalate ion to a hot start enzyme was investigated using a hot start enzyme KOD-plus DNA polymerase containing KOD α-type enzyme) and two kinds of KOD antibodies. The PCR buffer supplied with KOD-plus (manufactured by Toyobo), 0.2 mM dNTPs and 0.3 μM of a primer pair of SEQ ID Nos:8 and 9 were used. PCR was performed using 2.5 U KOD-plus DNA polymerase and 20 ng of Genomic DNA derived from human cell line K562 as a template to investigate the influence of varying the concentration of oxalate ion added on the PCR results. The PCR conditions were as follows: 1 preliminary reaction of 94° C. for 2 minutes, and then 35 cycles of 94° C. for 15 seconds, 60° C. for 30 seconds and 68° C. for 8.5 minutes. The PCR was performed using GeneAmp2400 (PE Applied Biosystems).

The target of another assay is T3, nPfu DNA polymerase (Pyrococcus furiosus, UniProt P61875).
T3 construct: α-Type Enzyme (Native Pfu); purchased STRATAGENE
T3 sequence (P61875 1-775): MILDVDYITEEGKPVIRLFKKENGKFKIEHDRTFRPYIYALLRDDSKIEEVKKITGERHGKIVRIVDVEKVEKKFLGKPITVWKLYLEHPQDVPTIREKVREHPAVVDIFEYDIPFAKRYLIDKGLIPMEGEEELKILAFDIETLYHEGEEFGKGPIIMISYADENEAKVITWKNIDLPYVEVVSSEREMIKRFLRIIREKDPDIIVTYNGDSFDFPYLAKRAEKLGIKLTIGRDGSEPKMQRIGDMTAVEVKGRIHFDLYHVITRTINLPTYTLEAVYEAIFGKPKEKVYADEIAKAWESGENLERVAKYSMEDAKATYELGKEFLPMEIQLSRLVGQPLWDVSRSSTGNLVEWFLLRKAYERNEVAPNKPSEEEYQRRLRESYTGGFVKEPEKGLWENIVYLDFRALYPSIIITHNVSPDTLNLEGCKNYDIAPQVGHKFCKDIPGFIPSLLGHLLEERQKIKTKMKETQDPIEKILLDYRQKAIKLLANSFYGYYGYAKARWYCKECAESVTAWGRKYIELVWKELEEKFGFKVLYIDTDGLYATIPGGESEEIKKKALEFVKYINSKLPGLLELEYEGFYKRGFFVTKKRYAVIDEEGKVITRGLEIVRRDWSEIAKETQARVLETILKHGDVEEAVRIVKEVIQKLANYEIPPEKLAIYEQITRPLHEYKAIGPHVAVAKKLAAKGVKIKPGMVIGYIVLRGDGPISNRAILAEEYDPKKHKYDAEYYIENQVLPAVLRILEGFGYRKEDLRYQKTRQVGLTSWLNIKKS
Description: PCR using nPfu DNA polymerase with added salts (Examples 1-5, 1-6). It is filed as biochemical. The protocol:
The effect produced by the addition of oxalate ion in PCR was investigated using nPfu polymerase. A PCR buffer (20 mM Tris-HCl (pH 8.75), 10 mM KCl, 10 mM (NH4) 2SO4, 2 mM MgSO4, 0.1% Triton X-100, 100 μg/ml BSA) attached to nPfu (STRATAGENE), 0.2 mM of dNTPs, and 0.3 μM of a pair of primers of SEQ ID NOs:12, and 13 were used. PCR was performed by using 2.5 U nPfu DNA polymerase and 20 ng of genomic DNA derived from human cell line K562 as a template, with the influence on the PCR result caused by varying the concentration of oxalate ion being investigated. PCR was performed by using GeneAmp2400 (PE Applied Biosystems) with the following conditions: 1 preliminary reaction of 94° C. for 2 minutes, and then 35 cycles of 94° C. for 15 seconds, 60° C. for 30 seconds and 68° C. for 8 minutes.
Salts (potassium chloride, potassium acetate, potassium oxalate, potassium sulfate) were tested for their effectiveness in PCR using nPfu DNA polymerase under the same conditions as Example 1-5.

The next assay has as its system EX-Taq DNA polymerase. Nature of the assay: PCR using EX-Taq DNA polymerase with added salts (Examples 1-1 to 1-3). It is filed as biochemical. The protocol: The effect produced by the addition of oxalate ions was investigated in the PCR using EX-Taq DNA polymerase. A PCR buffer supplied with EX-Taq (TAKARA) and 0.3 μM of a pair of primers of SEQ ID Nos:8 and 9 and 0.2 mM dNTPs were used. PCR was performed by using 1.0 U EX-Taq DNA polymerase and 20 ng of genomic DNA derived from human cell line K562 as a template, with the influence on the PCR result caused by varying the concentration of added oxalate ion being investigated. The PCR conditions were as follows: 1 preliminary reaction of 94° C. for 2 minutes, and then 35 cycles of 94° C. for 15 seconds, 60° C. for 30 seconds and 68° C. for 8.5 minutes. This PCR amplification was performed by using GeneAmp2400 (PE Applied Biosystems).
Salts (potassium chloride, potassium acetate, potassium oxalate, sodium oxalate, potassium sulfate) were investigated for their effectiveness in PCR using EX-Taq DNA polymerase under the same conditions as Example 1. Each salts was used in an amount of 4 to 6 mM of ion equivalent

For a further assay, the system named is pMol 21. The note with it: PCR product fidelity, rpsL / pMol 21 method; cited from earlier work.
The next assay has as its target KOD DNA polymerase (Thermococcus kodakarensis, UniProt P77933, DEL407-766/DEL853-1389). Nature of the assay: DNA elongation by KOD DNA polymerase on primed M13 mp18 DNA (Examples 3-10, 3-11). The note with it: for elongation (size of synthesized DNA): 75° C. It is filed as biochemical, Thermococcus kodakaraensis KOD1. The protocol: 150 fmol of KOD DNA polymerase was reacted with 1.5 pmol of DNA obtained by annealing an M13 P7 primer (SEQ ID NO:59) to M13 mp18 DNA (circular single-stranded DNA) to determine processivity. 450 fmol, 1.5 pmol, 4.5 pmol and 15 pmol samples of KOD-PCNA obtained in Example 3-6 were added to reaction buffer solutions [20 mM Tris-HCl (pH 7.5 at 75° C.), 10 mM KCl, 6 mM (NH4)2SO4, 2 mM MgCl2, 0.1% Triton X-100, 10 μg/ml BSA]. The mixtures were reacted at 75° C. for varying times: 30 seconds, 60 seconds and 120 seconds, to investigate their degrees of elongation. In the course of the elongation reaction DNA samples were withdrawn at the above reaction times and added to the same quantity of a stop solution (60 mM EDTA, […], 0.1% BPB, 30% glycerol). The obtained DNA samples were separated by 1% alkaline agarose electrophoresis and analyzed to determine the sizes of the synthesized DNA.
KOD DNA polymerase reactions were conducted in a similar manner to Example 3-10 either in the presence of KOD-PCNA or in the copresence of KOD-PCNA and KOD-RFC by using an circular single stranded DNA, which was annealed with a primer, as a substrate. […] This is presumably because almost all the KOD DNA polymerase molecules were available to react with PCNA in the presence of the RFC complex.

The mark [1] stands for this setting: K562 genomic DNA template, FIG. 1.

T1 sequence (P19821 whole entry): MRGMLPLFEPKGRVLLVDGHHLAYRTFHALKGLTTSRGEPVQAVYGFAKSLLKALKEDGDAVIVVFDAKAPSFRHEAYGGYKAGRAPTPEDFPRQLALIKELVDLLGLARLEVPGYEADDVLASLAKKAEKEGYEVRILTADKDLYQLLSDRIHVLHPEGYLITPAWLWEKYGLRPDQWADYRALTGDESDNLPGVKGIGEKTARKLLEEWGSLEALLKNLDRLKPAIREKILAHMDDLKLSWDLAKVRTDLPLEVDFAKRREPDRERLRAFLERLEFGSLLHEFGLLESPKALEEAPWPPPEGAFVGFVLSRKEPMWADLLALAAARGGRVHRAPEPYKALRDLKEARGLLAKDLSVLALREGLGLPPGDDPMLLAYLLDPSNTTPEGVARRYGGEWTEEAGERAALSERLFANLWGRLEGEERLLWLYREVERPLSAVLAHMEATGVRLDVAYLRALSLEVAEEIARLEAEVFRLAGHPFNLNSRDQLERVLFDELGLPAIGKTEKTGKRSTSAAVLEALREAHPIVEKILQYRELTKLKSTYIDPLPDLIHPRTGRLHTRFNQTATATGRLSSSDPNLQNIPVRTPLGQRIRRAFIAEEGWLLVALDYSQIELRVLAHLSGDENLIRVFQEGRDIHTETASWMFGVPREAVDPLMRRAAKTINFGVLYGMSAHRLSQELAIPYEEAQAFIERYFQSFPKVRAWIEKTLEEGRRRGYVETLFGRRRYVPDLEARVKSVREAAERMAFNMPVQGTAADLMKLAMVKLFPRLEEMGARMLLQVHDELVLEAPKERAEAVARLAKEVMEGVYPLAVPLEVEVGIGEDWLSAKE

`O=C(O)C(=O)O` [oxalate ion]: the “concentration range within which the effect of the addition of oxalate ion is found” value on Taq DNA polymerase, at KOD-plus DNA polymerase and at nPfu DNA polymerase was “up to 5 mM” throughout. Moreover, the entries for the “PCR amplification of 4.5-kb DNA of myelin oligodendrocyte glycoprotein” value on Taq DNA polymerase (1 mM oxalate ion) and at Taq DNA polymerase (2 mM oxalate ion) were “amplification of the target DNA was observed together with a smear” and “no smear was observed”, respectively. Besides, the “PCR amplification of 3.6-kb DNA of β-globin” value on Taq DNA polymerase (2 mM oxalate ion) is “amplification of the target sequence was observed together with a smear”; on Taq DNA polymerase (4 mM oxalate ion) it was “no smear was observed”. For the same molecule, the “oxalate ion concentration giving a discrete amplification band” value on Taq DNA polymerase (3.6-kb DNA of β-globin) is 4 to 5 mM; at Taq DNA polymerase (4.5-kb DNA of myelin oligodendrocyte glycoprotein), 2 to 5 mM. Besides, at nPfu DNA polymerase (FIG. 6), the “oxalate ion concentration at which amplification of the target DNA was observed” value fell in the range of 2 to 5 mM. Further, the “concentration range of oxalate ion within which the effect of the addition is found” value with EX-Taq DNA polymerase is “up to 4 mM”. The “oxalate ion amount at which amplification of the target DNA was confirmed” value in the assay on EX-Taq DNA polymerase (setting [1]) lay within 1 to 4 mM. Also, in the assay with EX-Taq DNA polymerase (setting [1]), the “oxalate ion concentration at which the amount of amplification was the highest” value was in the range of 2 to 3 mM.

B1: KOD DNA polymerase: Thermococcus kodakaraensis KOD1-derived thermostable α-type DNA polymerase, SEQ ID NO: 1 (protein)
chain: MILDTDYITEDGKPVIRIFKKENGEFKIEYDRTFEPYFYALLKDDSAIEEVKKITAERHGTVVTVKRVEKVQKKFLGRPVEVWKLYFTHPQDVPAIRDKIREHPAVIDIYEYDIPFAKRYLIDKGLVPMEGDEELKMLAFDIETLYHEGEEFAEGPILMISYADEEGARVITWKNVDLPYVDVVSTEREMIKRFLRVVKEKDPDVLITYNGDNFDFAYLKKRCEKLGINFALGRDGSEPKIQRMGDRFAVEVKGRIHFDLYPVIRRTINLPTYTLEAVYEAVFGQPKEKVYAEEITTAWETGENLERVARYSMEDAKVTYELGKEFLPMEAQLSRLIGQSLWDVSRSSTGNLVEWFLLRKAYERNELAPNKPDEKELARRRQSYEGGYVKEPERGLWENIVYLDFRSLYPSIIITHNVSPDTLNREGCKEYDVAPQVGHRFCKDFPGFIPSLLGDLLEERQKIKKKMKATIDPIERKLLDYRQRAIKILANSYYGYYGYARARWYCKECAESVTAWGREYITMTIKEIEEKYGFKVIYSDTDGFFATIPGADAETVKKKAMEFLKYINAKLPGALELEYEGFYKRGFFVTKKKYAVIDEEGKITTRGLEIVRRDWSEIAKETQARVLEALLKDGDVEKAVRIVKEVTEKLSKYEVPPEKLVIHEQITRDLKDYKATGPHVAVAKRLAARGVKIRPGTVISYIVLKGSGRIGDRAIPFDEFDPTKHKYDAEYYIENQVLPAVERILRAFGYRKEDLRYQKTRQVGLSAWLKPKGT
modifications: Thermococcus kodakaraensis KOD1; KOD DNA polymerase
As for B1, the mutation rate in the assay on pMol 21 was at most 0.1%. This molecule yielded a processivity with KOD DNA polymerase (no PCNA added) of at least 5 kb. In addition, the “elongation (size of synthesized DNA)” value in the assay with KOD DNA polymerase (no PCNA added, reaction time 30 seconds) came to 1.2 kb; with KOD DNA polymerase (no PCNA added, reaction time 60 seconds), 2.5 kb; with KOD DNA polymerase (no PCNA added, reaction time 120 seconds), 5 kb. In addition, in the assay with KOD DNA polymerase (no PCNA, 1.5 pmol substrate DNA relative to 150 fmol DNA polymerase), the elongation rate entry is “about 40 bases per second”.
